Assay results taken from patent publication US20160201132A1, “GENE EXPRESSION BIOMARKERS OF LAQUINIMOD RESPONSIVENESS” (Teva Pharmaceutical Industries Ltd., priority 2013, published 2016).

Tested on: PBMC of RRMS patients
Assay: Gene expression microarray analysis (HG-U133A-2) of PBMC from RRMS patients treated with LAQ, ancillary study to ALLEGRO
Type: in vivo, human
From the text: The goal of this ancillary study was to characterize gene expression changes and corresponding biological mechanisms induced in PBMC of RRMS patients by LAQ treatment. According to ALLEGRO clinical trial inclusion criteria, 25 patients were randomly assigned to receive LAQ (n=13, age 38.8±2.3 years, female/male ratio: 8/5) or placebo (n=12, age 37.2±3.4 years, female/male ratio: 8/4).
Peripheral blood samples were obtained from RRMS patients at baseline before start of LAQ treatment or placebo, after 0, 1, 6 and 24 month of treatment (visit 0, 1, 6 and 7 according to ALLEGRO clinical trial protocol correspondently) for gene microarray analysis.
Briefly, 1) Peripheral blood mononuclear cells (PBMC) were obtained from RRMS patients that participated in ALLEGRO and were treated daily with 0.6 mg LAQ or placebo. PBMC were subjected for gene expression analysis (HU-133A-2-Affymatrix arrays) at baseline and at 1 and 6 months of LAQ treatment; 2) Data was analyzed by Partek Genomics Solution software. Most informative genes (MIGs) were defined as those that differentiated between groups with p<0.01. Gene functional annotation, enrichment and pathway analysis were performed by Ingenuity software. For each time point, genes that changed in placebo group were excluded from further analysis; and 3) Verification of LAQ related mechanism was performed by Western blot.
PBMC were extracted from 15 ml peripheral blood, separated by Ficoll-Hypaque gradient. Total RNA was extracted using both Trizol (Invitrogen, USA) and Phase-Lock-Gel columns (Eppendorf, Germany) including a DNase digestion step. RNA integrity was assessed by RNA Experion automated electrophoresis system (Bio-Rad Laboratories, Hercules, Calif.).
Probe synthesis using 3 μg total RNA, hybridization, detection, and scanning was performed according to the standard Affymetrix, Inc. USA protocols; cDNA was synthesized using the Two-Cycle cDNA Synthesis Kit (Affymetrix, Inc., USA), and in-vitro transcription performed with the GeneChip IVT Labeling Kit (Affymetrix, Inc., USA). The biotin-labeled IVT-RNA was hybridized to HG-U133A-2 arrays containing 18,400 gene transcripts, each corresponding to 14,500 well-annotated human genes, washed in a GeneChip Fluidics Station 450 (Hewlett Packard, USA, GeneArray-™ scanner G2500A) and scanned according to the manufacturer's protocol (Affymetrix, Inc., USA).
Data analysis was performed on Partek Genomics Solution software (www.partek.com; Partek Incorporated, St. Louis, Mo.). Expression values were computed from raw CEL files by applying the Robust Multi-Chip Average (RMA) background correction algorithm. RMA correction included: 1) values background correction; 2) quintile normalization; 3) log 2 transformation; and 4) median polish summarization. The ANOVA, Repeated Measures and correlation analysis implicated in Partek software ware applied to evaluate LAQ effects. Most informative genes MIGs were defined as those that differentiated between experimental groups with p<0.01. All p-values were calculated for False Discovery Rate (FDR) multiple test correction at p=0.05.
Additionally, significance of individual genes was tested by parametric T-test and non parametric Mann-Whitney test using Bootstrapping approach based on repeated permutations of the data with 5% FDR for multiple testing.
Gene functional annotation, enrichment, and pathway analyses to identify the leading biological pathways that operated under LAQ treatment were performed by Ingenuity Pathways Analysis software (www.ingenuity.com).
ANOVA analysis was used to compare PBMC gene expression after 1, 6 or 24 month of LAQ treatment with baseline gene expression.
For each time point inventors performed analysis source of variation in dataset. (FIG. 1). Age, gender and batch effects were considered as confounders regarding LAQ or Placebo related changes. For each time point genes associated with Placebo effect were evaluated and excluded from further analysis. […]

[1] = after six months of LAQ treatment
[2] = combined 6 and 24 months vs baseline

What does the source list for `CCN(C(=O)c1c(O)c2c(Cl)cccc2n(C)c1=O)c1ccccc1` [LAQ, 5-chloro-N-ethyl-4-hydroxy-1-methyl-2-oxo-N-phenyl-1,2-dihydroquinoline-3-carboxamide]?
p, down regulation of pro-inflammatory cytokines IL-9/11/12/20/36, TNFRSF11A/B, IFNA4/8/10/17 and receptors for IL-5/13/20/22 [1]: 3*10^−3 to 9*10^−3; p, down-regulation of MMP16/24/26/28 and ADAM12/18/22 [1]: 4.95*10^−4 to 1.26*10^−3; p, suppression of CCL19 and chemokine receptor CXCR1/2 [1]: 6.79*10^−3; genes (#), Adhesion of cells (after six months of treatment): 119; genes (#), Caveolar mediated endocytosis (after six months of treatment): 13; genes (#), Cell signaling: Neurotransmission (after six months of treatment): 56; genes (#), Cellular movement: Invasion of cells (after six months of treatment): 120; genes (#), Development: Arachidonic Acid metabolism (after six months of treatment): 18; genes (#), Development: G protein Coupled Receptor Signaling (after six months of treatment): 73; genes (#), Hematological system: Coagulation system (after six months of treatment): 7; genes (#), Hematological system: Intrinsic prothrombin activation pathway (after six months of treatment): 6; genes (#), Inflammatory response: IL-12 signaling (after six months of treatment): 11; genes (#), TGFB signaling (after six months of treatment): 14; genes (#), Leukocyte Extravasation Signaling (after six months of treatment, cellular movement function): 31; genes (#), Leukocyte Extravasation Signaling (after six months of treatment, inflammatory response function): 29; # of genes p < 0.01 (LAQ related MIGs, ANOVA) [2]: 2922; Down regulated genes (LAQ related MIGs) [2]: 2911; Up-regulated genes (LAQ related MIGs) [2]: 11; Fold-Change (4.0 vs. 0.0) (gene AAK1): −1.184; Fold-Change (4.0 vs. 0.0) (gene ACSM5): −1.184; Fold-Change (4.0 vs. 0.0) (gene ACTA1): −1.184; Fold-Change (4.0 vs. 0.0) (gene AIF1): −1.179; Fold-Change (4.0 vs. 0.0) (gene AKAP9): −1.183; Fold-Change (4.0 vs. 0.0) (gene ALX4, after six months of LAQ): −1.285; Fold-Change (4.0 vs. 0.0) (gene ASCL1): −1.178; Fold-Change (4.0 vs. 0.0) (gene ATN1): −1.181; Fold-Change (4.0 vs. 0.0) (gene BCAN): −1.178; Fold-Change (4.0 vs. 0.0) (gene BCAP29): −1.18; Fold-Change (4.0 vs. 0.0) (gene C10orf81): −1.183; Fold-Change (4.0 vs. 0.0) (gene CA10): −1.181; Fold-Change (4.0 vs. 0.0) (gene CBS): −1.179; Fold-Change (4.0 vs. 0.0) (gene CLCN7): −1.177; Fold-Change (4.0 vs. 0.0) (gene CLEC4M): −1.184; Fold-Change (4.0 vs. 0.0) (gene CLN8): −1.182; Fold-Change (4.0 vs. 0.0) (gene CNOT4): −1.181; Fold-Change (4.0 vs. 0.0) (gene CYP2B6 /// CYP2B7P1, after six months of LAQ): −1.2873; Fold-Change (4.0 vs. 0.0) (gene CYR61): −1.181; Fold-Change (4.0 vs. 0.0) (gene DCBLD2): −1.18; Fold-Change (4.0 vs. 0.0) (gene DDN): −1.178; Fold-Change (4.0 vs. 0.0) (gene DHX34): −1.184; Fold-Change (4.0 vs. 0.0) (gene DNAH3): −1.184; Fold-Change (4.0 vs. 0.0) (gene DPYSL4): −1.18; Fold-Change (4.0 vs. 0.0) (gene DUOX2): −1.178; Fold-Change (4.0 vs. 0.0) (gene ESPL1, after six months of LAQ): −1.284; Fold-Change (4.0 vs. 0.0) (gene EXO1): −1.179; Fold-Change (4.0 vs. 0.0) (gene FAM188A): −1.178; Fold-Change (4.0 vs. 0.0) (gene FAM189A1): −1.183; Fold-Change (4.0 vs. 0.0) (gene GIPR): −1.1819; Fold-Change (4.0 vs. 0.0) (gene GPR12): −1.178; Fold-Change (4.0 vs. 0.0) (gene GPRIN2): −1.179; Fold-Change (4.0 vs. 0.0) (gene GRK5, after six months of LAQ): −1.289; Fold-Change (4.0 vs. 0.0) (gene GRM1): −1.181; Fold-Change (4.0 vs. 0.0) (gene GRM8): −1.182; Fold-Change (4.0 vs. 0.0) (gene HHLA1): −1.181; Fold-Change (4.0 vs. 0.0) (gene HOXC11): −1.181; Fold-Change (4.0 vs. 0.0) (gene HS3ST3B1): −1.178; Fold-Change (4.0 vs. 0.0) (gene ICMT): −1.183; Fold-Change (4.0 vs. 0.0) (gene IFNA17): −1.18; Fold-Change (4.0 vs. 0.0) (gene IGHG1): −1.183; Fold-Change (4.0 vs. 0.0) (gene IHH): −1.179; Fold-Change (4.0 vs. 0.0) (gene ITGB4): −1.181; Fold-Change (4.0 vs. 0.0) (gene KCND3): −1.184; Fold-Change (4.0 vs. 0.0) (gene KRT5, after six months of LAQ): −1.285; Fold-Change (4.0 vs. 0.0) (gene LAMA3): −1.181; Fold-Change (4.0 vs. 0.0) (gene LAMC2): −1.18; Fold-Change (4.0 vs. 0.0) (gene MALL, after six months of LAQ): −1.286; Fold-Change (4.0 vs. 0.0) (gene MGC2889): −1.18; Fold-Change (4.0 vs. 0.0) (gene MGC31957): −1.183; Fold-Change (4.0 vs. 0.0) (gene MORN1): −1.178; Fold-Change (4.0 vs. 0.0) (gene MYOZ1): −1.183; Fold-Change (4.0 vs. 0.0) (gene NAGLU): −1.184; Fold-Change (4.0 vs. 0.0) (gene NECAB2): −1.179; Fold-Change (4.0 vs. 0.0) (gene NNAT): −1.184; Fold-Change (4.0 vs. 0.0) (gene NOVA2): −1.18; Fold-Change (4.0 vs. 0.0) (gene NOX1): −1.179; Fold-Change (4.0 vs. 0.0) (gene NPR1): −1.1842; Fold-Change (4.0 vs. 0.0) (gene NR1I2): −1.182; Fold-Change (4.0 vs. 0.0) (gene NTRK2): −1.183; Fold-Change (4.0 vs. 0.0) (gene OR1A2): −1.179; Fold-Change (4.0 vs. 0.0) (gene OR2J2): −1.18; Fold-Change (4.0 vs. 0.0) (gene OR3A3): −1.182; Fold-Change (4.0 vs. 0.0) (gene PACRG): −1.182; Fold-Change (4.0 vs. 0.0) (gene PAH): −1.182; Fold-Change (4.0 vs. 0.0) (gene PARD3, after six months of LAQ): −1.288; Fold-Change (4.0 vs. 0.0) (gene PDX1): −1.179; Fold-Change (4.0 vs. 0.0) (gene PKNOX2): −1.183; Fold-Change (4.0 vs. 0.0) (gene POLQ): −1.179; Fold-Change (4.0 vs. 0.0) (gene POPDC3): −1.184; Fold-Change (4.0 vs. 0.0) (gene PRDM11): −1.183; Fold-Change (4.0 vs. 0.0) (gene PRKCE): −1.179; Fold-Change (4.0 vs. 0.0) (gene PRKG1): −1.181; Fold-Change (4.0 vs. 0.0) (gene PRSS7): −1.18; Fold-Change (4.0 vs. 0.0) (gene PURA): −1.179; Fold-Change (4.0 vs. 0.0) (gene RAB11B): −1.18; Fold-Change (4.0 vs. 0.0) (gene RAD51): −1.18; Fold-Change (4.0 vs. 0.0) (gene RELN): −1.18; Fold-Change (4.0 vs. 0.0) (gene RET): −1.183; Fold-Change (4.0 vs. 0.0) (gene RUNX2): −1.177; Fold-Change (4.0 vs. 0.0) (gene SERPINB3): −1.178; Fold-Change (4.0 vs. 0.0) (gene SLC6A11): −1.181; Fold-Change (4.0 vs. 0.0) (gene SLC25A10): −1.182; Fold-Change (4.0 vs. 0.0) (gene SLC30A3): −1.184; Fold-Change (4.0 vs. 0.0) (gene SLC37A4): −1.181; Fold-Change (4.0 vs. 0.0) (gene SLC39A2): −1.178; Fold-Change (4.0 vs. 0.0) (gene SLCO5A1): −1.181; Fold-Change (4.0 vs. 0.0) (gene SOD3): −1.181; Fold-Change (4.0 vs. 0.0) (gene SOX15, after six months of LAQ): −1.285; Fold-Change (4.0 vs. 0.0) (gene STRA6): −1.181; Fold-Change (4.0 vs. 0.0) (gene TACR2): −1.18; Fold-Change (4.0 vs. 0.0) (gene TRIO): −1.1816; Fold-Change (4.0 vs. 0.0) (gene TTLL5): −1.182; Fold-Change (4.0 vs. 0.0) (gene TTYH1): −1.177; Fold-Change (4.0 vs. 0.0) (gene VPS37B, after six months of LAQ): −1.288; Fold-Change (4.0 vs. 0.0) (gene VSNL1): −1.18; Fold-Change (4.0 vs. 0.0) (gene XPNPEP2): −1.183; Fold-Change (4.0 vs. 0.0) (gene ZNF215): −1.182; Fold-Change (4.0 vs. 0.0) (gene ZNF280B): −1.177; Fold-Change (4.0 vs. 0.0) (gene ZNF484): −1.1781; suppressed molecules associated with different mechanisms of inflammatory response (of 354 genes affected after 1 month of treatment): 50; down-regulated genes related to cellular movement mechanisms (of 1564 genes that passed FDR, more than 6 months (combined 6 and 24 months)): 305; share of significantly changed genes that were down regulated (one month of treatment): 98%; genes related to suppression of Cellular movement functions (out of 1562 genes, 6 months of treatment): 260; share of significantly changed genes that were down regulated (six months of treatment): 99%
